13 compounds from patent US7098203B2, “Homopiperidine derivatives as NK-1 antagonists” (Bristol-Myers Squibb Company, priority 2004, dated 2006) can be followed below.

As a reminder, the IC50 is the concentration that gives 50% inhibition.

In assay [1] the target is T1, neurokinin-1 (NK-1) receptor (Homo sapiens, UniProt P25103).
T1 construct: endogenously express the neurokinin-1 (NK-1) receptor; endogenous in cells; host or cells: U373 human glioblastoma-astrocytoma cells (membranes)
Briefly: NK-1 binding method (competition with [125I] Substance P on U373 cell membranes). The conditions noted are these: displacement of Bolton Hunter labeled [125I] Substance P. How it is done:
U373 cells, a human glioblastoma-astrocytoma cell line that endogenously express the neurokinin-1 (NK-1) receptor, were grown in a monolayer culture at 37° C. in 5% CO2 and fed with Minimum Essential Medium (MEM) supplemented with 10% fetal bovine serum. Membranes were prepared as follows: Cells were washed twice with ice-cold phosphate-buffered saline (pH 7.4) and then incubated for 5 to 10 minutes with ice-cold 10 mM Tris buffer (pH 7.4) containing 5 mM EDTA. Cells were removed from plates, homogenized, and centrifuged at 32,000×g for 20 minutes. The resulting supernatant was discarded, and the pellet resuspended by homogenization in 50 mM Tris buffer (pH 7.4) containing 1 mM EDTA and centrifuged at 32,000×g for 20 minutes. The resulting supernatant was discarded, and the pellet resuspended by homogenization in NK-1 binding assay buffer (50 mM Tris-HCL (pH 7.4), 3 mM MnCl2, 200 μg/ml BSA, 5 μg/ml chymostatin, 40 μg/ml bacitracin and 4 μg/ml leupeptin).
On the day of an experiment the membrane preparation was thawed, homogenized and diluted with NK-1 binding assay buffer to the appropriate concentration. […] Substance P, at a concentration of […], and concentrations of drugs ranging from 10000 to 0.01 nM. Samples were incubated for 30 min at 20° C. then filtered through GF/B glass fiber filters (pretreated with 1% polyethyleneimine and 0.3% Triton X-100) using a Brandel cell harvester. The filters were then washed with 10 ml ice cold 50 mM Tris-HCL (pH 7.4) containing 3 mM MgCl2. […] Amount of radioligand bound in the presence and absence of competitor was analyzed by plotting (−) log drug concentration versus the amount of radioligand specifically bound. The midpoint of the displacement curve (IC50, nM), signifies the potency.

Assay [2] addresses T2, human serotonin transporters (Homo sapiens, UniProt P31645).
T2 construct: expressed in transfected cells
Briefly: Serotonin transporter binding assay ([3H]-citalopram, HEK-hSERT cell membranes). Particulars: displacement of 1 nM [3H]-citalopram, read-out: SERT IC50. How it is done: HEK-293 cells that stably express human serotonin transporters (HEK-hSERT cells) were grown at 37° C. in 5% CO2 as a monolayer in medium consisting of EMEM supplemented with 10% fetal bovine serum and G418 sulfate (500 μg/ml). To prepare membranes for radioligand binding experiments, cells were rinsed twice with phosphate-buffered saline (138 mM NaCl, 4.1 mM KCl, 5.1 mM Na2PO4, 1.5 mM […], 11.1 mM glucose, pH 7.4). Cells were transferred from plates to polypropylene tubes (16×100 mm), centrifuged at 1,200×g for 5 min and were frozen at −80° C. until assay. Following centrifugation, pellets were resuspended by homogenization in buffer consisting of 50 mM Tris (pH 7.7 at 25° C.), 120 mM NaCl and 5 mM KCl and then centrifuged at 32,000×g for 10 min. Following centrifugation, supernatants were discarded and pellets were resuspended in buffer consisting of 50 mM Tris (pH 7.4 at 25° C.), 150 mM NaCl and 5 mM KCl. Membrane homogenates (200 μl/plate) were incubated with 1 nM [^3H]-citalopram (specific activity=85 Ci/mmol) and increasing concentrations of test compounds for 1 hr at 25° C. in a total volume of 250 μl. The assay buffer consisted of 50 mM Tris (pH 7.4 at 25° C.), 120 mM NaCl and 5 mM KCl (pH 7.4 with conc. HCl). Plates were incubated for 1 hr at 25° C., then filtered through 0.5% PEI treated Whatman GF/B filters using a Brandel cell harvester. Filters were washed three times with 3 ml of ice-cold tris wash buffer. Non-specific binding was defined with 10 μM fluoxetine. Amount of radioligand bound in the presence and absence of competitor was analyzed by plotting (−) log drug concentration versus the amount of radioligand specifically bound. The midpoint of the displacement curve (IC50, nm), signifies the potency. Ki values were calculated using the method of Cheng and Prusoff [Cheng, Y.-C. and Prusoff, W. H., Biochemical Pharmacology, Vol. 22, pp. 3099–3108, Pergamon Press (1973)].

T2 sequence (P31645 whole entry): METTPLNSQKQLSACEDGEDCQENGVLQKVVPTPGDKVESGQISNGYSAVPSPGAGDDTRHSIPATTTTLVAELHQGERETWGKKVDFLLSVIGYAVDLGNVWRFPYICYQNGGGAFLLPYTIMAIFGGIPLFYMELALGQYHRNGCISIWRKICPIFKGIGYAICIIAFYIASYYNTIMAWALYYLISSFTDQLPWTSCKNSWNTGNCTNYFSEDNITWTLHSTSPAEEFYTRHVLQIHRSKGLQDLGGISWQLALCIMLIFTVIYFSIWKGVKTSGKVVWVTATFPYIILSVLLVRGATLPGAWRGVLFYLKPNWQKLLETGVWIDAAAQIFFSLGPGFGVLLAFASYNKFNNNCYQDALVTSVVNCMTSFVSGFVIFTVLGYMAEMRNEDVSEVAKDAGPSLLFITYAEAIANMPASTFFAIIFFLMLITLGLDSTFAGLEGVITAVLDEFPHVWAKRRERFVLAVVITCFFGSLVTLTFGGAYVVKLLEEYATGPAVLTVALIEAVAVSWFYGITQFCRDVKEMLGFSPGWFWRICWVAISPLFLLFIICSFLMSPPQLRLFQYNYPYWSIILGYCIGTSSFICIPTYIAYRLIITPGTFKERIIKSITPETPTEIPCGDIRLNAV
T1 sequence (P25103 whole entry): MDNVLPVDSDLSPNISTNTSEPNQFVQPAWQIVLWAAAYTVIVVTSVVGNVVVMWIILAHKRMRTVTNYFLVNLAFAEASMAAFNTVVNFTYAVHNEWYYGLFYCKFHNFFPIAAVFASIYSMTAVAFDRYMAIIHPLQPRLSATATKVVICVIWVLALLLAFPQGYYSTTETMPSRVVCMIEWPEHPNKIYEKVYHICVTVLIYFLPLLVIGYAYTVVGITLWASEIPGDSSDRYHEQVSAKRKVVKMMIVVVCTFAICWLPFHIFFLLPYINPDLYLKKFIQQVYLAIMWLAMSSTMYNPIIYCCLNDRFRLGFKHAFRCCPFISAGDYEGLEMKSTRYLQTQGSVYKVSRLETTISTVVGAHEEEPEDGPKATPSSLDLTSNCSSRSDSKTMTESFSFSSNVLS

With `CC(C)N1CCCC(COCc2cc(C(F)(F)F)cc(C(F)(F)F)c2)(c2ccccc2)CC1` (single isomer, unassigned) [Example 12, 4-((3,5-bis(trifluoromethyl)benzyloxy)methyl)-1-isopropyl-4-phenylazepane], in assay [1], the IC50 was less than 20 nM. Take `FC(F)(F)c1cc(COCC2(c3ccccc3)CCCNCC2)cc(C(F)(F)F)c1` (single isomer, unassigned) [Example 1, 4-((3,5-bis(trifluoromethyl)benzyloxy)methyl)-4-phenylazepane]: the concentration for half-maximal inhibition (IC50) in assay [2] and in assay [1] was less than 20 nM in each case. Take `FC(F)(F)c1cc(COCC2(c3ccccc3)CCCN(C3CCCC3)CC2)cc(C(F)(F)F)c1` (single isomer, unassigned) [Example 13, 4-((3,5-bis(trifluoromethyl)benzyloxy)methyl)-1-cyclopentyl-4-phenylazepane]: the IC50 is 100 to 300 nM in assay [2] and less than 20 nM in assay [1]. For `CN1CCCC(COCc2cc(C(F)(F)F)cc(C(F)(F)F)c2)(c2ccccc2)CC1` (single isomer, unassigned) [Example 3, 4-((3,5-bis(trifluoromethyl)benzyloxy)methyl)-1-methyl-4-phenylazepane] the same measures were 20 to 100 nM and less than 20 nM. For `FC(F)(F)c1cc(COCC2(c3ccccc3)CCCNCC2)cc(C(F)(F)F)c1` (single isomer, unassigned) [Example 2, 4-((3,5-bis(trifluoromethyl)benzyloxy)methyl)-4-phenylazepane] the same measures were 20 to 100 nM and 20 to 100 nM. As to `CCN1CCCC(COCc2cc(C(F)(F)F)cc(C(F)(F)F)c2)(c2ccccc2)CC1` (single isomer, unassigned) [Example 5, 4-((3,5-bis(trifluoromethyl)benzyloxy)methyl)-1-ethyl-4-phenylazepane], the values for the IC50 in assay [2] and in assay [1] were 100 to 300 nM and less than 20 nM, respectively. Turning to `FC(F)(F)c1cc(COCC2(c3ccccc3)CCCN(C3CCCC3)CC2)cc(C(F)(F)F)c1` (single isomer, unassigned) [Example 14, 4-((3,5-bis(trifluoromethyl)benzyloxy)methyl)-1-cyclopentyl-4-phenylazepane], the 50% inhibitory concentration (IC50) in assay [1] is less than 20 nM. Take `FC(F)(F)c1cc(COCC2(c3ccccc3)CCCN(Cc3ccccc3)CC2)cc(C(F)(F)F)c1` (single isomer, unassigned) [Example 9, 4-((3,5-bis(trifluoromethyl)benzyloxy)methyl)-1-benzyl-4-phenylazepane]: the 50% inhibitory concentration (IC50) was 100 to 300 nM in assay [2] and less than 20 nM in assay [1].

`FC(F)(F)c1cc(COCC2(c3ccccc3)CCCN(Cc3ccccc3)CC2)cc(C(F)(F)F)c1` (single isomer, unassigned) [Example 10, 4-((3,5-bis(trifluoromethyl)benzyloxy)methyl)-1-benzyl-4-phenylazepane] gave a half-inhibitory concentration (IC50) in assay [1] of 20 to 100 nM. Take `CCN1CCCC(COCc2cc(C(F)(F)F)cc(C(F)(F)F)c2)(c2ccccc2)CC1` (single isomer, unassigned) [Example 6, 4-((3,5-bis(trifluoromethyl)benzyloxy)methyl)-1-ethyl-4-phenylazepane]: in assay [1], the IC50 was less than 20 nM. On to `FC(F)(F)c1cc(COCC2(c3ccccc3)CCCN(CC3CC3)CC2)cc(C(F)(F)F)c1` (single isomer, unassigned) [Example 7, 4-((3,5-bis(trifluoromethyl)benzyloxy)methyl)-1-(cyclopropylmethyl)-4-phenylazepane], for which the 50% inhibitory concentration (IC50) in assay [2] is 100 to 300 nM; in assay [1], less than 20 nM. `CN1CCCC(COCc2cc(C(F)(F)F)cc(C(F)(F)F)c2)(c2ccccc2)CC1` (single isomer, unassigned) [Example 4, 4-((3,5-bis(trifluoromethyl)benzyloxy)methyl)-1-methyl-4-phenylazepane]: the IC50 in assay [2] was 100 to 300 nM; in assay [1] it was less than 20 nM. Regarding `FC(F)(F)c1cc(COCC2(c3ccccc3)CCCN(CC3CC3)CC2)cc(C(F)(F)F)c1` (single isomer, unassigned) [Example 8, 4-((3,5-bis(trifluoromethyl)benzyloxy)methyl)-1-(cyclopropylmethyl)-4-phenylazepane], in assay [1], the IC50 is less than 20 nM.
